{
  "source": "paper PMC8506967",
  "about": "“Binding specificity and function of the SWI/SNF subunit SMARCA4 bromodomain interaction with acetylated histone H3K14” (The Journal of Biological Chemistry, 2021)",
  "key": {"BAZ2B BD": {"target": "T1, BAZ2B BD (Homo sapiens, UniProt Q9UIF8)", "T1 sequence (Q9UIF8 2060-2164 limits assumed)": "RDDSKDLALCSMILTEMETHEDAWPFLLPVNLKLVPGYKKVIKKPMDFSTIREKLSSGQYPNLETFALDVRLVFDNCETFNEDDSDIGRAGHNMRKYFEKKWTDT", "experiment": "ITC, BAZ2B bromodomain", "type": "binding", "conditions": "BAZ2B wt, GST +, 293 or 298 K, 10 mM HEPES, 100 mM NaCl, 2.5% glycerol, pH 7.3"}, "four family VIII BD": {"tested_on": "four family VIII BD", "conditions": "cited from earlier work", "from_the_text": "How SMARCA4 targets, is recruited to, and interacts with chromatin substrates to induce ATP-dependent nucleosome remodeling has been a long-standing question. Recent structures of the SMARCA4 catalytic-core domain in complex with a nucleosome core particle, as well as a nucleosome-bound SWI/SNF complex comprising SMARCA4 and nine auxiliary subunits, provided insights into the mechanism of SWI/SNF remodeling ([25], [26]). But the structural basis underlying SMARCA4 recognition of its histone tail target has remained elusive despite the existence of SMARCA4 structures in the apo state ([1], [27] ..."}, "[1]": {"tested_on": "Saccharomyces cerevisiae Sth1 (ScSth1) BD", "conditions": "cited from earlier work", "from_the_text": "How SMARCA4 targets, is recruited to, and interacts with chromatin substrates to induce ATP-dependent nucleosome remodeling has been a long-standing question. Recent structures of the SMARCA4 catalytic-core domain in complex with a nucleosome core particle, as well as a nucleosome-bound SWI/SNF complex comprising SMARCA4 and nine auxiliary subunits, provided insights into the mechanism of SWI/SNF remodeling ([25], [26]). […] Water-mediated hydrogen bonds stabilize the interaction between H3R17 and Tyr1270 on the αC-helix. || We next asked if the SMARCA4-specific residues are also conserved in other family VIII BDs that bind H3K14ac. […] PBRM-1 is an SWI/SNF accessory protein in the PBAF complex that contains six tandem N-terminal BDs ([42]). The second and fourth PBRM-1 BDs (BD(2) and BD(4)) bind H3K14ac ([43], [44]). Due to the low sequence homology outside of the central α A and αB helices ([1]), we aligned the family VIII BDs based on the superposition of their structures and added CeSMARCA4 to the alignm ..."}, "HsPBRM-1 BD(5)": {"tested_on": "HsPBRM-1 BD(5)", "conditions": "PBRM-1 BD(5); cited from earlier work", "from_the_text": "We superimposed each family VIII BD structure onto the CeSMARCA4-BD structure and plotted the deviation for each residue (Fig. 5D and Fig. S2). […] The overall roo ..."}, "ASH1L-BD": {"tested_on": "ASH1L-BD", "conditions": "cited from earlier work"}, "SMARCA4": {"tested_on": "SMARCA4", "conditions": "C-terminal BD motif; cited from earlier work", "from_the_text": "SMARCA4/BRG1 is an essential catalytic core subunit of the roughly two-megadalton Switch/Sucrose Nonfermenting (SWI/SNF) multiprotein complex, which uses the energy of ATP hydrolysis to remodel chromatin by perturbing interactions between histone core particles and DNA ([14], [15]). SMARCA4 can remodel nucleosomal substrates by itself in vitro ([16], [17]) and is functionally and structurally conserved among eukaryotes ([14], [18])."}, "PBRM-1 BD(2) and BD(4)": {"tested_on": "PBRM-1 BD(2) and BD(4)", "conditions": "cited from earlier work", "from_the_text": "(§1) We next asked if the SMARCA4-specific residues are also conserved in other family VIII BDs that bind H3K14ac. […] PBRM-1 is an SWI/SNF accessory protein in the PBAF complex that contains six tandem N-terminal BDs ([42]). The second and fourth PBRM-1 BDs (BD(2) and BD(4)) bind H3K14ac ([43], [44]). Due to the low sequence homology outside of the central α A and αB helices ([1]), we aligned the family VIII BDs based on the superposition of their structures and added CeSMARCA4 to the alignm ..."}, "PBRM-1": {"tested_on": "PBRM-1", "conditions": "cited from earlier work", "from_the_text": "as §1"}, "SMARCA2": {"tested_on": "SMARCA2", "conditions": "cited from earlier work", "from_the_text": "as §1"}, "human BAZ2B bromodomain": {"target": "T2, human BAZ2B bromodomain (human)", "T2 chain": "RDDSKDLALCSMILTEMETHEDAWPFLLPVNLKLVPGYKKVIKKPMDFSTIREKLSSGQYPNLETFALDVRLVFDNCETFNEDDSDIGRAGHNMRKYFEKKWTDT", "experiment": "ITC"}, "[2]": {"target": "T3, CeSMARCA4 BD crystallisation construct (residues Lys1176–Glu1296, Phe1287Ser) (C. elegans, UniProt G5EF53 1176-1296, Phe1287Ser)", "T3 construct": "SWSN-4 (CeSMARCA4), C. elegans, bromodomain, residues Lys1176-Glu1296 with the point mutation Phe1287Ser; pGEX-6P-1 vector with an HRV 3C protease site; also called untagged CeSMARCA4 BD; source: E. coli BL21 (DE3), purified (Glutathione Sepharose, PreScission cleavage, Q Sepharose, Sephacryl S-200); not shown: GST, N-terminal, cleaved", "T3 sequence (looked up)": "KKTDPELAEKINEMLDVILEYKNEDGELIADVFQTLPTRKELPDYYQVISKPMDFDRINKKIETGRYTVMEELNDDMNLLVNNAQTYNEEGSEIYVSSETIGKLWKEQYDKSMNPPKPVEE", "experiment": "crystal structure; BD incubated with 2:1 M excess H3_(7–20)K14ac peptide at 4 °C, sitting-drop vapor diffusion, 35% PEG smear; 1.29 Å, space group P4_(1)2_(1)2", "conditions": "both partners purified"}, "[3]": {"target": "T4, CeSMARCA4 GST–BD fusion (C. elegans SMARCA4/SWSN-4 bromodomain, residues D1179–N1289, GST-tagged) (C. elegans, UniProt G5EF53 1179-1289)", "T4 construct": "SWSN-4 (CeSMARCA4, ortholog of human SMARCA4/BRG1), C. elegans, bromodomain, residues D1179-N1289; Cloned from Bristol N2 cDNA into a pGEX vector; also called GST-CeSMARCA4; CeSMARCA4 BD; source: E. coli BL21 (DE3), purified (Glutathione Sepharose 4B, eluted with reduced glutathione, dialysed); not shown: GST, N-terminal, kept", "T4 sequence (looked up)": "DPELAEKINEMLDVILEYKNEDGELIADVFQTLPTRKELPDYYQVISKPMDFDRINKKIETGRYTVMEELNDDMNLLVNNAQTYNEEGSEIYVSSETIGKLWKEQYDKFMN", "experiment": "ITC; MicroCal Auto-iTC200, 293 or 298 K, 10 mM HEPES, 100 mM NaCl, 2.5% glycerol, pH 7.3; protein 50–100 μM in the cell, peptide 500–1000 μM in the syringe; single-site binding model", "conditions": "both partners purified"}, "[4]": {"target": "T5, CeSMARCA4 BD with the GST tag cleaved off (ITC) (C. elegans, UniProt G5EF53 1179-1289)", "T5 construct": "SWSN-4 (CeSMARCA4), C. elegans, bromodomain; the Asp1179-Asn1289 construct is the one named for ITC; A protease site and cleavage are described only for the crystallisation construct (K1176-E1296, F1287S); also called CeSMARCA4 bromodomain, GST tag removed; source: E. coli BL21 (DE3), purified, GST tag cleaved off; not shown: GST, N-terminal, cleaved", "T5 sequence (looked up)": "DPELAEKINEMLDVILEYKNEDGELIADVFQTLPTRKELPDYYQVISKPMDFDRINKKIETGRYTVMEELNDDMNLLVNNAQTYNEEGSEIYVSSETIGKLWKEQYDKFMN", "experiment": "ITC; MicroCal Auto-iTC200, 293 or 298 K, 10 mM HEPES, 100 mM NaCl, 2.5% glycerol, pH 7.3; protein 50–100 μM in the cell, peptide 500–1000 μM in the syringe; single-site binding model", "conditions": "both partners purified"}},
  "note": "Ends that are not written are not given here.",
  "data": [
    {"molecule": "CC(=O)NCCCC[C@H](NC(=O)CNC(=O)CNC(=O)[C@@H](NC(=O)[C@H](CO)NC(=O)[C@H](CCCCN)NC(=O)[C@H](CCCNC(=N)N)NC(=O)[C@H](C)N)[C@@H](C)O)C(=O)N[C@@H](C)C(=O)N1CCC[C@H]1C(=O)N[C@@H](CCCNC(=N)N)C(=O)N[C@@H](CCCCN)C(=O)N[C@@H](CCC(N)=O)C(=O)N[C@@H](CC(C)C)C(=O)O", "note": "[H3_7–20K14ac]", "values": [
      {"measurement": "Kd", "setting": "BAZ2B BD", "value": "12.1 ± 0.2", "unit": "µM"}
    ]},
    {"molecule": "O=C(/C=C/N1C[C@H]2C[C@@H]1CN2c1ccccn1)c1ccccc1O", "note": "[PFI-3]", "values": [
      {"measurement": "selectivity of chemical probe", "setting": "four family VIII BD", "value": "selective for four family VIII BD"}
    ]},
    {"molecule": "H3K14ac: lysine 14 acetylation on histone H3 (ARKSTGGKAPRKQL; not fully specified (residue 8); also: K14 acetylation, chain position not given here)", "values": [
      {"measurement": "binding of mutated H3 peptide / acetylated mark to ScSth1 BD", "setting": "[1]", "value": "binds more promiscuously"},
      {"measurement": "selective H3K14ac binding", "setting": "[1]", "value": "reported to selectivity bind"},
      {"measurement": "H3K14ac binding", "setting": "HsPBRM-1 BD(5)", "value": "cannot bind"},
      {"measurement": "H3K14ac binding", "setting": "ASH1L-BD", "value": "unable to bind"},
      {"measurement": "H3K14ac recognition", "setting": "SMARCA4", "value": "capable of recognizing"},
      {"measurement": "H3K14ac binding", "setting": "PBRM-1 BD(2) and BD(4)", "value": "bind"},
      {"measurement": "selective H3K14ac binding", "setting": "PBRM-1", "value": "reported to selectivity bind"},
      {"measurement": "selective H3K14ac binding", "setting": "SMARCA2", "value": "reported to selectivity bind"}
    ]},
    {"molecule": "ARKSTGGK(Ac)APRKQL (peptide, UniProt P68431 8-21, looked up, histone H3 N-terminal tail, residues 7-20; also called H3K14ac peptide)", "note": "[histone H3_(7–20)K14ac peptide]", "values": [
      {"measurement": "Kd", "setting": "human BAZ2B bromodomain", "value": 12.1, "unit": "µM"},
      {"measurement": "binding result", "setting": "[2]", "value": "binds"},
      {"measurement": "Kd", "setting": "[3]", "value": "11.6 ± 0.1", "unit": "µM"},
      {"measurement": "Kd", "setting": "[4]", "value": "23.4 ± 0.8", "unit": "µM"}
    ]}
  ]
}
